These are literature values, as cited in patent publication US20230330298A1 (priority 2022, published 2023).

Bounds are passed on as bounds.

The subject of one data set is Clostridium botulinum spores.
For the compound `O=CC=Cc1ccccc1` [Cinnamaldehyde], the “Sporicidal Minimal Inhibitory Concentration” value is above 2500 mM and the “Sporostatic Minimal Inhibitory Concentration” value is 9.8 mM. On to `COc1cc(C=O)ccc1O` [Vanillin], for which the “Sporicidal Minimal Inhibitory Concentration” value is on record as 125 mM and the “Sporostatic Minimal Inhibitory Concentration” value is listed as 0.6 mM. Consider `O=Cc1ccc2c(c1)OCO2` [Piperonal], for which the “Sporicidal Minimal Inhibitory Concentration” value is given as above 2500 mM and the “Sporostatic Minimal Inhibitory Concentration” value was 0.6 mM. `O=Cc1ccccc1` [Benzaldehyde]: the “Sporicidal Minimal Inhibitory Concentration” value was 625 mM and the “Sporostatic Minimal Inhibitory Concentration” value is reported as 0.6 mM.

In the next data set the test system is bacterial spores.
Consider `CCCCCCCCCCCCCCCCCC(=O)OCC(O)CO` (stereo not shown) [glycerol monostearate], for which the “Sporicidal effect (in words)” value is listed as “kill bacterial spores”. As for `CCCCCCCCCCCC(=O)OCC(O)CO` (stereo not shown) [Monolaurin], the “Sporicidal effect (in words)” value is “kill bacterial spores”.
